The values below come from ChEMBL document CHEMBL3046136, “Evaluation of antidepressant-like effect of 2-pyrazoline derivatives” (Med Chem Res, 2010).

Each structure is given as a SMILES string.

Series [1] relates to Mus musculus. The experiment in a line: Toxicity in Mus musculus albino (mouse) assessed as resting time at 100 mg/kg, ip. The arrangement: dose 100 mg/kg, route intraperitoneal. It counts as organism-based. The following applies: in vivo.
The subject of series [2] is Mus musculus. The experiment in a line: Toxicity in Mus musculus albino (mouse) assessed as increase in total distance travelled at 100 mg/kg, ip. It counts as organism-based. The settings on record: in vivo. The arrangement: dose 100 mg/kg, route intraperitoneal.
For series [3], the system named is Mus musculus. The experiment in a line: Toxicity in Mus musculus albino (mouse) assessed as increase in horizontal activity at 100 mg/kg, ip. It counts as organism-based. The arrangement: dose 100 mg/kg, route intraperitoneal. The settings on record: in vivo.
Series [4] has as its system Mus musculus. In words: Antidepressant-like activity in Mus musculus albino (mouse) assessed as latency for first immobilization at 100 mg/kg, ip measured after 30 min by forced swim test (reference value: 68 +/- 13 sec). The following applies: route intraperitoneal. It counts as functional.
Series [5] concerns Mus musculus. The experiment in a line: Antidepressant-like activity in Mus musculus albino (mouse) assessed as immobility time at 100 mg/kg, ip measured after 30 min by forced swim test (reference value: 167 +/- 17 sec). It counts as functional. The following applies: route intraperitoneal.
Series [6] relates to Mus musculus. The experiment in a line: Toxicity in Mus musculus albino (mouse) assessed as decrease in total distance travelled at 100 mg/kg, ip. It counts as organism-based. On the set-up: dose 100 mg/kg, route intraperitoneal. The settings on record: in vivo.
The test system of series [7] is Mus musculus. The experiment in a line: Toxicity in Mus musculus albino (mouse) assessed as decrease in horizontal activity at 100 mg/kg, ip. It counts as organism-based. The arrangement: dose 100 mg/kg, route intraperitoneal. The settings on record: in vivo.
Series [8] deals with Mus musculus. The experiment in a line: Toxicity in Mus musculus albino (mouse) assessed as resting time at 10 mg/kg, ip. It counts as organism-based. The arrangement: dose 10 mg/kg, route intraperitoneal. The following applies: in vivo.
For series [9], the system named is Mus musculus. The experiment in a line: Toxicity in Mus musculus albino (mouse) assessed as increase in total distance travelled at 10 mg/kg, ip. It counts as organism-based. The following applies: in vivo. The arrangement: dose 10 mg/kg, route intraperitoneal.
Series [10] has as its system Mus musculus. In words: Toxicity in Mus musculus albino (mouse) assessed as increase in horizontal activity at 10 mg/kg, ip. It counts as organism-based. On the set-up: dose 10 mg/kg, route intraperitoneal. The settings on record: in vivo.

Regarding `O=C(CSC(=S)N1CCOCC1)N1N=C(c2cccs2)CC1c1ccccc1` (stereo not drawn), the values for the Activity in series [1], in series [2] and in series [3] were 77%, “Toxic” and “Toxic”, respectively. In addition, the Time in [4] amounted to 73 s; in series [5], 148 s.

With `O=C(CSC(=S)N1CCSCC1)N1N=C(c2cccs2)CC1c1ccccc1` (stereo not drawn), the Activity is reported as 73% in series [1], “Toxic” in series [2] and “Toxic” in series [3]. Also, the Time in series [4] was 72 s; in series [5], 84 s.

As to `Cc1ccc(C2CC(c3cccs3)=NN2C(=O)CSC(=S)N2CCOCC2)cc1` (stereo not drawn), the Activity result in series [6] is reported as “Toxic”; in series [1], 89%; in series [7], “Toxic”. Moreover, the figures for the Time in series [4] and in series [5] were 99 s and 129 s, respectively.

For the compound `Cc1ccc(C2CC(c3cccs3)=NN2C(=O)CSC(=S)N2CCSCC2)cc1` (stereo not drawn), in series [1], the Activity is listed as 81%. Moreover, the Time in [4] amounted to 60 s; in series [5], 113 s.

On to `COc1ccc(C2CC(c3cccs3)=NN2C(=O)CSC(=S)N2CCOCC2)cc1` (stereo not drawn), for which, in [1], the Activity turned out to be 84%. Further, the Time is given as 94 s in series [4] and 139 s in series [5].

As to `COc1ccc(C2CC(c3cccs3)=NN2C(=O)CSC(=S)N2CCSCC2)cc1` (stereo not drawn), the Activity was 72% in [1], “Toxic” in [2] and “Toxic” in series [3]. In addition, the Time in series [4] is listed as 80 s; in series [5], 134 s.

On to `O=C(CSC(=S)N1CCOCC1)N1N=C(c2cccs2)CC1c1ccc(Cl)cc1` (stereo not drawn), for which, in [1], the Activity came to 80%. Besides, the Time in series [4] is reported as 36 s; in series [5], 112 s.

As to `O=C(CSC(=S)N1CCSCC1)N1N=C(c2cccs2)CC1c1ccc(Cl)cc1` (stereo not drawn), the Activity entry is listed as “Toxic” in [6], 80% in [1] and “Toxic” in series [7]. Moreover, the values for the Time in series [4] and in series [5] were 77 s and 136 s, respectively.

Take `N[C@@H]1C[C@H]1c1ccccc1.N[C@H]1C[C@@H]1c1ccccc1` (racemic) [TRANYLCYPROMINE]: the Activity in [8] is recorded as 89%.

Consider `CN(C)CCCN1c2ccccc2CCc2ccc(Cl)cc21` [CLOMIPRAMINE], for which the Activity in series [8] is reported as 73%; in [9], “Toxic”; in series [10], “Toxic”.
